From PubChem BioAssay (NCI) come the findings set out here.

Converted amounts (≈) assume the structure as drawn. “And” between values parts separate entries of the source, which are not always exact repeats. Equal entries are not always repeated.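 Five concentrations, 48 hours, 96-well plates. The concentration for 50% growth inhibition is given as GI50. Definition used: TGI = concentration required for complete inhibition of growth.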 The source made the active and inactive calls. Cut-off read from the data, not from the text of the source: active = GI50 below about 0.43 µM; inactive = the rest. Where a SMILES comes first, the peptide text is derived from it. [ ]: non-standard residue; d: D form. Ac5c = NC1(C(=O)O)CCCC1

Some test systems named below: HOP-18 NSCLC; RXF-631 renal; XF 498 CNS; M19-MEL melanoma; DMS 114 small cell lung; DLD-1 colon; SNB-78 CNS; DMS 273 small cell lung; MDA-N; P388 leukemia; P388/ADR leukemia.
Common to all, as to test: NCI tumour cell line growth inhibition, 48 h

In the case of `CCCCOC(=O)NC(=O)c1cn(CCCOC(=O)CCCCCCCCC(=O)OCCCn2cc(C(=O)NC(=O)OCCCC)c(=O)[nH]c2=O)c(=O)[nH]c1=O`, the TGI in the assay with HOP-18 NSCLC, with RXF-631 renal, in the assay with XF 498 CNS, with M19-MEL melanoma, in the assay on DMS 114 small cell lung and in the assay on DLD-1 colon was > 100 µM throughout.

For the compound `COc1ccc(NC(=O)C(=O)C(C(=O)c2ccccc2)C2OC(=O)c3ccccc32)c([N+](=O)[O-])c1` (configuration not stated), the TGI with HOP-18 NSCLC, with SNB-78 CNS, with XF 498 CNS, in the assay on M19-MEL melanoma, in the assay on DMS 114 small cell lung and in the assay with DLD-1 colon was > 100 µM throughout. Besides, in the assay on DMS 273 small cell lung, the TGI is > 100 µM.

For `CCCCCCCCC[C@@H]1CC(=O)OCC2OC(O[C@H](CCCCCCCCC)CC(=O)OCC3OC(O[C@H](CCCCCCCCC)CC(=O)OCC4OC(O1)C(O)C(O)C4O)C(O)C(O)C3O)C(O)C(O)C2O` (some centres not stated), the TGI is 0.0797 µM in the assay on HOP-18 NSCLC; 34.6 µM with SNB-78 CNS; 23.3 µM with XF 498 CNS; 16.5 µM in the assay on M19-MEL melanoma; 24 µM with DMS 114 small cell lung; 28.2 µM in the assay with DLD-1 colon. The compound further showed a TGI with DMS 273 small cell lung of 21.6 µM.

As for `COc1cc(/C=C(\C#N)C(=O)c2ccccc2)ccc1OCc1ccccc1`, the TGI with SNB-78 CNS, in the assay on XF 498 CNS, in the assay on M19-MEL melanoma and in the assay with DMS 114 small cell lung was > 100 µM in each case.

As to `CC(=O)Nc1ccc(C(=O)NN2C(=O)C(Cl)C2c2ccc(Cl)cc2)cc1` (configuration not stated), the TGI with HOP-18 NSCLC, with M19-MEL melanoma and with DLD-1 colon was > 100 µM in each case.

With `CCNC(=O)CCN(C(=O)O)S(=O)(=O)c1ccc(NC(=O)c2ccccc2)cc1`, the TGI in the assay with HOP-18 NSCLC, in the assay on SNB-78 CNS, in the assay on XF 498 CNS, with M19-MEL melanoma, in the assay on DMS 114 small cell lung and in the assay with DLD-1 colon was > 100 µM throughout. Also, the TGI in the assay on DMS 273 small cell lung was 41.3 µM.

As for `CCN(CC)C(=C(C(Cl)=C(Cl)Cl)[N+](=O)[O-])N(CC)CC`, in the assay with MDA-N, the TGI was > 100 µM.

`COc1ccc(-c2onc(-c3ccc([N+](=O)[O-])cc3)c2C2=NCCN2)cc1`: the TGI with HOP-18 NSCLC, in the assay with SNB-78 CNS, in the assay with XF 498 CNS, in the assay on M19-MEL melanoma and in the assay on DLD-1 colon was > 100 µM each time.

Take `CC(=O)CC(=O)Nc1ccc2ccccc2c1`: the TGI in the assay with MDA-N is > 100 µM.

As to `NC1(C(=O)NC2(C(=O)O)CCCC2)CCCC1` (H-[Ac5c]-[Ac5c]-OH), the TGI with MDA-N is > 100 µM.

Consider `Cn1ccnc1CC(C)(O)c1ccccc1` (configuration not stated), for which, in the assay with MDA-N, the TGI is > 100 µM.

As to `O=[N+]([O-])c1cccc(/C=N\NS(=O)(=O)c2ccc(Cl)cc2)c1O`, the TGI in the assay with HOP-18 NSCLC, with RXF-631 renal, in the assay on SNB-78 CNS, in the assay with M19-MEL melanoma, with DLD-1 colon and in the assay on DMS 273 small cell lung was > 100 µM in each case.

Regarding `Nc1ccc(N(S(=O)(=O)c2ccccc2)S(=O)(=O)c2ccccc2)c(Cl)c1`, in the assay with MDA-N, the TGI was > 100 µM.

Turning to `Cc1c[nH]c2c(O)cc3c(c12)[C@H](CCl)CN3C(=O)c1cc2cc(NC(=O)Nc3ccc4[nH]c(C(=O)N5C[C@@H](CCl)c6c5cc(O)c5[nH]cc(C)c65)cc4c3)ccc2[nH]1`, the result in the assay with HOP-18 NSCLC and with XF 498 CNS was inactive. Further, the GI50 was 0.000887 ng/mL and 2.73 ng/mL with SNB-78 CNS; 0.0123 µM with MDA-N; 1.14 ng/mL (≈ 1.4 nM) in the assay with M19-MEL melanoma; 0.000887 ng/mL and 0.888 ng/mL with DMS 114 small cell lung; 0.000887 ng/mL and 1.4 ng/mL in the assay on DLD-1 colon; 0.000887 ng/mL and 0.888 ng/mL in the assay with P388 leukemia. In addition, the GI50 in the assay with P388/ADR leukemia was 0.888 ng/mL (≈ 1.09 nM); with DMS 273 small cell lung, 0.000887 ng/mL and 0.888 ng/mL. Further, the TGI in the assay on SNB-78 CNS was 1.59 µM and 0.00887 µg/mL and 6.72 µg/mL; with M19-MEL melanoma it was 3.44 ng/mL; with P388/ADR leukemia, 83 ng/mL (≈ 102 nM).

`C=C1C(=O)C23CC1C[C@H](OC(C)=O)[C@H]2C1(C)C(OC(C)=O)C[C@H](O)C(C)(C)[C@H]1C(=O)[C@@H]3OC(C)=O` (some centres not stated) showed a TGI in the assay on MDA-N of 10.7 µM.

Consider `CCCCc1c2c(nc3c1CCC/C3=C\c1ccccc1)C(=O)CCC2`, for which the TGI with HOP-18 NSCLC was determined as 79 µM; with SNB-78 CNS, 52.5 µM; with XF 498 CNS it was 33.2 µM; with M19-MEL melanoma, 34.4 µM; with DMS 114 small cell lung, 41.7 µM; in the assay with DMS 273 small cell lung, 65.6 µM.

For `O=C1OC(CC(=O)c2ccc(Cl)c(Cl)c2)C(Cl)=C1Cl` (configuration not stated), the TGI in the assay with HOP-18 NSCLC, in the assay with RXF-631 renal, in the assay with XF 498 CNS, in the assay with M19-MEL melanoma, in the assay with DMS 114 small cell lung and with DLD-1 colon was > 100 µM in each case. The TGI with DMS 273 small cell lung was > 100 µM.

For the compound `NC(=O)C(=Cc1ccc(C(O)P(=O)(O)O)cc1)C(N)=O` (configuration not stated), the TGI with HOP-18 NSCLC, with RXF-631 renal, in the assay with SNB-78 CNS, in the assay with XF 498 CNS, with M19-MEL melanoma and in the assay with DMS 114 small cell lung was > 100 µM each time. Moreover, the TGI in the assay with DLD-1 colon and in the assay with DMS 273 small cell lung was > 100 µM throughout.

Take `COC(=O)CCc1cc(OC)c2c(c1)C(C(=O)OC)C(c1ccc(OC)c(OC)c1)O2` (configuration not stated): in the assay with MDA-N, the TGI is > 100 µM and 23.2 µM.

As to `NNC(=O)/C(=C/c1ccc(Cl)c(Cl)c1)NC(=O)c1ccccc1`, the TGI with RXF-631 renal, in the assay with SNB-78 CNS, with XF 498 CNS, in the assay on M19-MEL melanoma, with DMS 114 small cell lung and in the assay on DLD-1 colon was > 100 µM throughout.
